Laboratory results: patent US8884011B2, “Nucleotide analogues as precursor molecules for antivirals” (Centre National de la Recherche Scientifique-CNRS, priority 2006, dated 2014)

Key:
Parainfluenza-3-virus = experiment: Virus panel, CPE assay: Parainfluenza-3-virus in Vero cells; format: cell-based; settings: read-out: in vitro antiviral activity (EC50), none up to
[1] = Stability in complete medium (RPMI 1640 containing 10% heat-inactivated fetal calf serum), HPLC; format: in vitro ADME
Procedure: (§1) Media and preparation of cell extracts. Culture medium was composed by RPMI 1640 containing 10% (v/v) heat-inactivated fetal calf serum and stored at −80° C. CEM-SS cell extracts were prepared according to a published procedure (Puech, F. et al. Antiv. Res. 1993, 22, 155-174). Exponentially growing CEM-SS cells were recovered by centrifugation (500 g, 4° C., 4 min), washed twice with PBS and resuspended in 10 mM Tris-HCl, 140 mM KCl (pH 7.4), at the concentration of 30×10^6 cells/mL. Cells were lyzed by ultrasonic treatment and cellular debris were removed by centrifugation (10000 g, 4° C., 20 min). The supernatant containing soluble proteins (3 mg/mL) was stored at −80° C.
Kinetic data and decomposition pathways for compounds 6 and 11 were studied at 37° C. (a) in complete medium (RPMI 1640 containing 10% heat-inactivated fetal calf serum (b) in total cells extracts (CEM-SS). For each kinetic study, the compound solution was diluted with a freshly thawed aliquot of the considered medium to obtain an initial concentration of 0.1 mM. The mixture was incubated at 37° C. and for the required time, an aliquot (10% solution) was taken and immediately frozen at −80° C. for further HPLC analysis. The crude sample was injected into the precolumn and eluted with buffer A during 5 min. Then, the switching valve for connecting the precolumn to the column was activated, and a linear gradient from buffer A to buffer B, increasing buffer B from 0% at 0 min to 20% at 40 min is applied. The retention times were 6, 26 min; 11, 29.5 min, PMEA, 24.3 min and (R)-PMPA, 27.8 min.
All the compounds were analyzed under the same conditions. The amount of remaining parent compound at each time point was used to determine the half-life of the compound. The product of degradation from parent compound was determined by comparison with corresponding references.

Reovirus-1 = experiment: Virus panel, CPE assay: Reovirus-1 in Vero cells; format: cell-based; settings: Reovirus-1, Vero cells; read-out: in vitro antiviral activity (EC50), none up to
influenza A (H3N2) = experiment: Virus panel: influenza A (H3N2) in MDCK cells; format: cell-based; settings: read-out: in vitro antiviral activity (EC50), none up to
Source text: (§2) influenza A (H1N1), influenza A (H3N2), influenza B, in MDCK cells;

Punta Toro virus = experiment: Virus panel, CPE assay: Punta Toro virus in Vero cells; format: cell-based; settings: read-out: in vitro antiviral activity (EC50), none up to
HIV-1-LAI = experiment: Anti-HIV test in CMSP cultures infected by HIV-1-LAI (RT activity in supernatants); format: cell-based; settings: Human immunodeficiency virus 1, 168 h, read-out: EC50 (μM) HIV-1 (LAI)
HIV-1 (IIIB) = experiment: Anti-HIV test in CEM cell cultures, syncytium formation, HIV-1 (IIIB); format: cell-based; settings: Human immunodeficiency virus 1, IIIB, CCRF-CEM, read-out: EC50 (μM) HIV-1
Procedure: Briefly, CEM cells (4.5×10^5 cells per ml) were suspended in fresh culture medium and infected with HIV-1 at 100 CCID50 per ml of cell suspension. Then, 100 μl of the infected cell suspension were transferred to microplate wells, mixed with 100 μl of the appropriate dilutions of the test compounds, and further incubated at 37° C. After 4 to 5 days, giant cell formation was recorded microscopically in the CEM cell cultures.

[2] = Cytotoxicity by MTT test in cultures of uninfected CMSP; settings: human
[3] = tested on: Herpes simplex virus-2 (G); experiment: Virus panel, CPE assay: Herpes simplex virus-2 (G) in HEL cells; format: cell-based; settings: Human alphaherpesvirus 2
Sindbis virus = experiment: Virus panel, CPE assay: Sindbis virus in Vero cells; format: cell-based; settings: read-out: in vitro antiviral activity (EC50), none up to
HIV-2 (ROD) = experiment: Anti-HIV test in CEM cell cultures, syncytium formation, HIV-2 (ROD); format: cell-based; settings: Human immunodeficiency virus 2, CCRF-CEM, read-out: EC50 (μM) HIV-2
[4] = tested on: vesicular stomatitis virus; experiment: microbe, parasite or virus in culture; format: cell-based; settings: HEL, read-out: in vitro antiviral activity (EC50), none up to
influenza A (H1N1) = experiment: Virus panel: influenza A (H1N1) in MDCK cells; format: cell-based; settings: read-out: in vitro antiviral activity (EC50), none up to
Source text: as §2

HBV [5] = experiment: Anti-HBV test in infected HepAD38 cells (intracellular viral DNA by Q-PCR); format: cell-based; settings: Hepatitis B virus, 144 h; infected HepAD38 cells; 50% reduction of viral DNA; day 6 post-induction
Procedure: These are hepatoma cells that have been stably transfected with a cDNA copy of the pregenomic RNA of wild-type virus. Withdrawal of tetracycline from the culture medium results in the initiation of viral replication. This offers the advantage, in contrast to the Hep G2.2.15 cell lines commonly used, that there is no, or very limited background viral DNA synthesis. Cells were cultured at 37° C. in a humidified 5% CO2/air atmosphere in seeding medium, DMEM/Ham's F12 (50/50) supplemented with 10% (v/v) heat-inactivated fetal calf serum, 100 IU/ml penicillin, 50 μg/ml streptomycin, 100 Ξg/ml kanamycin, 400 μg/ml G418, and 0.3 μg/ml tetracycline. […] After 2-3 days the cultures were induced for viral production by washing with prewarmed PBS and were fed with […] assay medium (seeding medium without tetracycline and G418) with or without the antiviral compounds. Medium was changed after 3 days. The antiviral effect was quantified by measuring levels of intracellular viral DNA at day 6 post-induction, by a real time quantitative PCR (Q-PCR) method. Total cellular DNA was extracted from the cells by means of a commercial kit. […] The reaction was analyzed using a SDS 7000. A plasmid containing the full length insert of the HBV genome was used to prepare the standard curve. The amount of viral DNA produced in treated cultures was expressed as a percentage of the mock treated samples. […] The cytostatic effect of the various compounds was assessed employing the parent hepatoma cell line HepG2. The effect of the compounds on exponentially growing HepG2 cells was evaluated by means of the MTS method. Briefly, cells were seeded at a density of 3000/well (96 well plate) and were allowed to proliferate for 3 days in the absence or presence of compounds after which the optical density was measured with a 96-well plate reader and cell density was determined.

HBV [6] = experiment: Anti-HBV test in infected Huh7 cells; format: cell-based; settings: Hepatitis B virus, Huh-7, read-out: EC50 (μM) HBV
influenza B = experiment: Virus panel: influenza B in MDCK cells; format: cell-based; settings: read-out: in vitro antiviral activity (EC50), none up to
Source text: as §2

[7] = Cytotoxicity in CEM cell cultures (cell density); format: cell-based; settings: human, 50% reduction in cell density, read-out: TC50 (the source's name)
[8] = Cytostatic effect on parent hepatoma cell line HepG2 (MTS method); settings: human
Feline Herpes virus = experiment: Virus panel: Feline Herpes virus in CRFK cells; format: cell-based
Source text: Feline Corona virus and Feline Herpes virus in CRFK cells.

[9] = Stability in total cell extracts (CEM-SS), HPLC; format: in vitro ADME; settings: 37° C., 0.1 mM
Procedure: as §1
Kinetic data and decomposition pathways for compounds 6 and 11 were studied at 37° C. […]
All the compounds were analyzed under the same conditions. […] The product of degradation from parent compound was determined by comparison with corresponding references.

[10] = tested on: respiratory syncytial virus; experiment: Virus panel, CPE assay: respiratory syncytial virus in Hela cells; format: cell-based; settings: human respiratory syncytial virus, read-out: in vitro antiviral activity (EC50), none up to
Coxsackie B4 = experiment: Virus panel, CPE assay: Coxsackie B4 virus in Hela and Vero cells; format: cell-based; settings: Enterovirus B, read-out: in vitro antiviral activity (EC50), none up to

For `Nc1ncnc2c1ncn2CCOCP(=O)(O)S` (stereo not drawn) [Compound 6, 9-[2-(thiophosphonomethoxy)ethyl]adenine], the EC50 (Parainfluenza-3-virus) was greater than 200 µM, the half-life at 0.1 mM ([1]; bovine, serum, 37° C., initial concentration 0.1 mM, read-out: t1/2 complete medium) was greater than 24 h and the product intact ([1]; complete medium, 37° C., degradation into the phosphonate) was “^a: product 80% intact (degradation into PMEA)”. The degradation ([1]; culture medium) was 20%, the EC50 (Reovirus-1) was greater than 200 µM and the EC50 (influenza A (H3N2)) was greater than 200 µM. It also gave an EC50 (Punta Toro virus) greater than 200 µM, an EC50 (HIV-1-LAI) of 7 µM and an EC50 (HIV-1 (IIIB)) of 12.2 µM. The CC50 at 7 days [2] was greater than 42 µM, the EC50 [3] was 58 µM and the EC50 (Sindbis virus) was greater than 200 µM. For the same compound, the EC50 (HIV-2 (ROD)) was 10.4 µM, the EC50 [4] was greater than 200 µM and the EC50 (influenza A (H1N1)) was greater than 200 µM. It also gave an EC50 (HBV [5]) of 9.6 µM, an EC50 (HBV [6]) of 4.5 µM and an EC50 (influenza B) greater than 200 µM. For the same compound, the CC50 [7] was greater than 332 µM, the CC50 at 3 days [8] was greater than 166 µM and the EC50 (Feline Herpes virus) was 38 µM. For the same compound, the t1/2 cell extracts [9] was “stable^c”, the EC50 [10] was greater than 200 µM and the EC50 (Coxsackie B4) was greater than 200 µM.
